Laboratory results taken from patent publication US20230382923A1, “FUSED TETRACYCLIC QUINAZOLINE DERIVATIVES AS INHIBITORS OF ERBB2” (EnLiven Therapeutics, Inc., priority 2021, published 2023).

How the values were obtained:
[1] = target: phosphorylated ERBB2 (pERBB2) (Homo sapiens (Human), UniProt P04626); assay: Detection of phosphorylated ERBB2 (pERBB2) by ELISA in BT-474 cells; type: cell-based; details: four hours incubation with compound
Method: BT-474 cells were seeded into a 96-well at 2.0*10^4cells/100 μl/well. Compounds were dissolved and serially diluted in DMSO. The compounds were then were added, mixed, and incubated for four hours at 37° C., 5% CO2. […] Following the four hour incubation with compounds, cell lysates were prepared. Plates were centrifuged for 5 min at 3000 RPM, and supernatant was removed from each well. Cells were washed 3 times by resuspension in 150 μl PBS, followed by centrifugation and removal of the supernatant, as above. 100 μl of cell lysis buffer (Boston BioProducts, cat #BP-115D) supplied with 1×complete ULTRA cocktail inhibitor (Thermo ScientificTM, cat #78443) was then added to the washed cells. Cells were incubated with lysis buffer for 1 hour at 4° C., and then stored at -80° C. Enzyme-linked immunosorbent assays (ELISA) were performed to measure phosphorylated ERBB2 levels. […] The next day, plates were washed with PBS+0.05% Tween20 (PBST). 150 μl of 5% BSA blocking solution was added for 1 hour at room temperature, with shaking. Plates were washed with PBST. Cell lysates were thawed and 100 μl of lysate was added to the ELISA plate. The plates were incubated for 2 hours at room temperature, with shaking. ELISA plates were then washed with PBST and 100 μl of an HRP-labeled detection antibody that binds phosphorylated tyrosine (R&D Systems, cat #841913) was added to each well. Plates were incubated for 1 hour at room temperature, with shaking. Plates were then washed with PBST, and 100 μl TMB substrate solution (R&D Systems, cat #DY999) was added. Plate were incubated in the dark for 20 minutes at room temperature. 50 μl of Stop solution (R&D Systems, cat #DY994) (50 μl) was added to each well and mixed. […] The remaining kinase activity by calculated using the following formula: % Relative activity=100×([…]). The low and high control values (“LC” and “HC”) were generated from lysate from wells without cells or with cells treated with 0.1% DMSO, respectively.

[2] = target: phosphorylated EGFR (pEGFR) (Homo sapiens (Human), UniProt P00533); assay: Detection of phosphorylated EGFR (pEGFR) by AlphaLISA in A431 cells; type: cell-based; details: A431 cells (10% FBS), 4 hours incubation, EGF 30 ng/mL for 10 minutes
Method: […] were performed to measure phosphorylated EGFR levels using A431 cells (10% FBS). A431 (1.0*10^4cells/40 μl/well) cells were seeded in 384 well. Compounds were dissolved in DMSO, serially diluted in DMSO and then were added, mixed, and incubated for 4 hours at 37° C., […]. Following the 4-hours incubation, cells were stimulated for 10 minutes with EGF (Invitrogen, cat #PHG0311) at a final concentration of 30 ng/mL in the incubator. The media was aspirated and cells were lysed in 10 μL lysis buffer with protease and phosphatase inhibitors (PerkinElmer, cat #ALSU-PEGFR-A50K). The plates were placed on a shaker for 5 minutes and then incubated for 30 min at 4° C. for complete lysis. The lysate was transferred to an Optiplate (Perkin Elmer, cat #6007290).
Acceptor mix (PerkinElmer, cat #ALSU-PEGFR-A50K) was prepared just before use and 5 μL was dispensed to all the wells, followed by a 1.5-2 h incubation at room temperature in dark. The donor mix (PerkinElmer, cat #ALSU-PEGFR-A50K) was prepared under low light conditions prior to use and 5 μl of donor mix was added to all the wells under subdued lighting or green filters. The plates were placed on a shaker for 5 min, sealed, and incubated overnight at room temperature in dark. Plates were read on the Envision (PerkinElmer) using standard AlphaLISA settings.
The percentage of inhibition on EGFR phosphorylation was calculated following equation: % Inhibition=100×(LumHC−LumSample)/(LumHC−LumLC). The low and high controls (LC/HC) are generated from lysate from wells with cells treated with DMSO or […] Staurosporine (BioAustralis, cat #BIA-S1086), […]. IC50 values were calculated by fitting the Curve using XLfit (v5.3.1.3), equation 201: Y=Bottom+(Top−Bottom)/(1+10^((LogIC50−X)*HillSlope)).

Chain of phosphorylated ERBB2 (pERBB2) (P04626 23-1255): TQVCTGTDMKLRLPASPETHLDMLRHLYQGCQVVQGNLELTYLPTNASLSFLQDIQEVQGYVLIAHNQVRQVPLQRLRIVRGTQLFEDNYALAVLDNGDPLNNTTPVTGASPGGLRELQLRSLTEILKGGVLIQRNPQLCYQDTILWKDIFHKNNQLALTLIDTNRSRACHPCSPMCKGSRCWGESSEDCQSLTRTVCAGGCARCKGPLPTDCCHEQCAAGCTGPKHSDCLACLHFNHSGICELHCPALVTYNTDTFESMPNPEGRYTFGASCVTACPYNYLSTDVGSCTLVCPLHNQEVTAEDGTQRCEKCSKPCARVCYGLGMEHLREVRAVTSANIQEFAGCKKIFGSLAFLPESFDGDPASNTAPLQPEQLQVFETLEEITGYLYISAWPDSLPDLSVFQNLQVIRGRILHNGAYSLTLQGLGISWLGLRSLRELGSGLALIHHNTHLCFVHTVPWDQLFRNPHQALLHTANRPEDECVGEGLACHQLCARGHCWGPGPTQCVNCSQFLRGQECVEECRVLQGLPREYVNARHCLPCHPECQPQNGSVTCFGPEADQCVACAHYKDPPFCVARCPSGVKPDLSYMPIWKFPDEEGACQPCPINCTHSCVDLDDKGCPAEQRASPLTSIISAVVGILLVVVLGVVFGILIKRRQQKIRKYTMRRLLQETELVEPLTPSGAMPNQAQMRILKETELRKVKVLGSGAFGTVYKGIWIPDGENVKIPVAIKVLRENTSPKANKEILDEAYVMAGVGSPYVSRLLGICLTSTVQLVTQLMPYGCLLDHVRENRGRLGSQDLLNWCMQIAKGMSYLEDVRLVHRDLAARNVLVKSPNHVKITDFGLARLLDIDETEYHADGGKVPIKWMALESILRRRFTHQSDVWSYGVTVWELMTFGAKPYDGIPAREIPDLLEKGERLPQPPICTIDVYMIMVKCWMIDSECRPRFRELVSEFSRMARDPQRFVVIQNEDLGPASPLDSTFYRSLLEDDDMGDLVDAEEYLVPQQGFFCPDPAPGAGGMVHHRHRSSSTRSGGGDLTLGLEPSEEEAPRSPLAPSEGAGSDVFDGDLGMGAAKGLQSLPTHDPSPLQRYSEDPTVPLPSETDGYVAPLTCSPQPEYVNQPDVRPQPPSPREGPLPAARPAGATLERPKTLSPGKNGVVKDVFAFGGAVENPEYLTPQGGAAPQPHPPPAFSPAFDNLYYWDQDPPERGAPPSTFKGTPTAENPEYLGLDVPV
Chain of phosphorylated EGFR (pEGFR) (P00533 25-1210): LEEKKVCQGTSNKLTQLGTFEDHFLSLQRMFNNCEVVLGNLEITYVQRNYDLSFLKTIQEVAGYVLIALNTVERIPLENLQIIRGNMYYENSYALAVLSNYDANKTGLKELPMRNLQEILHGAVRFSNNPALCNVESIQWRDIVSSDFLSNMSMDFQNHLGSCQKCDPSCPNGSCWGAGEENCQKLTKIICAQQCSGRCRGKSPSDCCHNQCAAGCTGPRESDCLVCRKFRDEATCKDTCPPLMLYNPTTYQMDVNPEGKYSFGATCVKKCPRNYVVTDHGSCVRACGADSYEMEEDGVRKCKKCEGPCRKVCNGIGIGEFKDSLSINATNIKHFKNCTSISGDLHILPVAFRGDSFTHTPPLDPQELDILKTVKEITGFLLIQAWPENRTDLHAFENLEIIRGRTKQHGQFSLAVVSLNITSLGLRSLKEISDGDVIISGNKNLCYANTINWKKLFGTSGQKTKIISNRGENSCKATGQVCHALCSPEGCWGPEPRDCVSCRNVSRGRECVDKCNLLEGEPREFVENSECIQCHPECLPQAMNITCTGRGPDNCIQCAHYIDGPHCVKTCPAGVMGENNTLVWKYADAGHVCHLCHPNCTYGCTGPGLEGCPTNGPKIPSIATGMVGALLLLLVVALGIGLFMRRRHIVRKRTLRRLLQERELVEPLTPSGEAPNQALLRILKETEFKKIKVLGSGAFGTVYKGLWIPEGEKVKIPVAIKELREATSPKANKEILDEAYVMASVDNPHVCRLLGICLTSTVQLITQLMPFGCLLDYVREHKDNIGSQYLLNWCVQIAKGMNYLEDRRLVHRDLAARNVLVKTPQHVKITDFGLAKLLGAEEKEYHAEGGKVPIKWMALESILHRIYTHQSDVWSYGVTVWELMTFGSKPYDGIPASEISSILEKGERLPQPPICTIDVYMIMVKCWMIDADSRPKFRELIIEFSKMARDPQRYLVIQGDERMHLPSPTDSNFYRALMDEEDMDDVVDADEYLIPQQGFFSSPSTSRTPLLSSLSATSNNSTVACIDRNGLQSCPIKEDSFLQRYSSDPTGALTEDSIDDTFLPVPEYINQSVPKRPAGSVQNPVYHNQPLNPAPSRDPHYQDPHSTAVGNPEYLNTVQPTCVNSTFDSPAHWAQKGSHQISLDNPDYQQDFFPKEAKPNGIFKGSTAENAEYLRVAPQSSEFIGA

## Cc1cc(Nc2ncnc3cc4c(nc23)N2CCN(C(=O)/C=C/CN(C)C)C(CO4)C2)ccc1Oc1ccc2c(c1)ncn2C (stereo in doubt) [Compound 6, (E)-4-(dimethylamino)-1-((10S)-4-((3-methyl-4-((1-methyl-1H-benzo[d]imidazol-5-yl)oxy)phenyl)amino)-7,8,10,11-tetrahydro-9H-6,10-methanopyrimido[4′,5′:5,6]pyrido[3,2-b][1,4,7]oxadiazonin-9-yl)but-2-en-1-one]
[1]
  IC50: 0.0342 µM
[2]
  IC50: 2.19 µM

## Cc1cc(Nc2ncnc3cc4c(cc23)N2CCN(C(=O)/C=C/CN(C)C)C(CO4)C2)ccc1Oc1ccc2c(c1)ncn2C (stereo in doubt) [Compound 7, (E)-4-(dimethylamino)-1-((10S)-4-((3-methyl-4-((1-methyl-1H-benzo[d]imidazol-5-yl)oxy)phenyl)amino)-7,8,10,11-tetrahydro-9H-6,10-methano[1,4,7]oxadiazonino[3,2-g]quinazolin-9-yl)but-2-en-1-one]
[1]
  IC50: 0.0413 µM
[2]
  IC50: > 10 µM

## Cc1cc(Nc2ncnc3cc4c(cc23)N2CCN(C(=O)/C=C/CN(C)C)C(CO4)C2)ccc1Oc1ccn2ncnc2c1 (stereo in doubt) [Compound 9, (E)-1-((10S)-4-((4-([1,2,4]triazolo[1,5-a]pyridin-7-yloxy)-3-methylphenyl)amino)-7,8,10,11-tetrahydro-9H-6,10-methano[1,4,7]oxadiazonino[3,2-g]quinazolin-9-yl)-4-(dimethylamino)but-2-en-1-one]
[1]
  IC50: 0.0189 µM
[2]
  IC50: > 10 µM

## Cc1cc(Nc2ncnc3cc4c(nc23)N2CCN(C(=O)/C=C/CN(C)C)C(CO4)C2)ccc1Oc1ccn2ncnc2c1 (stereo in doubt) [Compound 10, (E)-1-((10S)-4-((4-([1,2,4]triazolo[1,5-a]pyridin-7-yloxy)-3-methylphenyl)amino)-7,8,10,11-tetrahydro-9H-6,10-methanopyrimido[4′,5′:5,6]pyrido[3,2-b][1,4,7]oxadiazonin-9-yl)-4-(dimethylamino)but-2-en-1-one]
[1]
  IC50: 0.0052 µM
[2]
  IC50: 3.04 µM

## CC#CC(=O)N1CCN2CC1COc1cc3ncnc(Nc4ccc(Oc5ccc6c(c5)ncn6C)c(C)c4)c3cc12 (stereo in doubt) [Compound 11, 1-((10S)-4-((3-methyl-4-((1-methyl-1H-benzo[d]imidazol-5-yl)oxy)phenyl)amino)-7,8,10,11-tetrahydro-9H-6,10-methano[1,4,7]oxadiazonino[3,2-g]quinazolin-9-yl)but-2-yn-1-one]
[1]
  IC50: 0.103 µM
[2]
  IC50: > 10 µM

## CC#CC(=O)N1CCN2CC1COc1cc3ncnc(Nc4ccc(Oc5ccn6ncnc6c5)c(C)c4)c3cc12 (stereo in doubt) [Compound 12, 1-((10S)-4-((4-([1,2,4]triazolo[1,5-a]pyridin-7-yloxy)-3-methylphenyl)amino)-7,8,10,11-tetrahydro-9H-6,10-methano[1,4,7]oxadiazonino[3,2-g]quinazolin-9-yl)but-2-yn-1-one]
[1]
  IC50: 0.0428 µM
[2]
  IC50: 7.06 µM

## Cc1cc(Nc2ncnc3cc4c(nc23)N2CCN(C(=O)/C=C/CN(C)C)C(CO4)C2)ccc1Oc1ccn2ncnc2c1 (stereo in doubt) [Compound 15, (E)-1-((10R)-4-((4-([1,2,4]triazolo[1,5-a]pyridin-7-yloxy)-3-methylphenyl)amino)-7,8,10,11-tetrahydro-9H-6,10-methanopyrimido[4′,5′:5,6]pyrido[3,2-b][1,4,7]oxadiazonin-9-yl)-4-(dimethylamino)but-2-en-1-one]
[1]
  IC50: 0.343 µM
[2]
  IC50: > 10 µM

## CC#CC(=O)N1CCN2CC1COc1cc3ncnc(Nc4ccc(Oc5ccc6c(c5)ncn6C)c(C)c4)c3nc12 (stereo in doubt) [Compound 16, 1-((10S)-4-((3-methyl-4-((1-methyl-1H-benzo[d]imidazol-5-yl)oxy)phenyl)amino)-7,8,10,11-tetrahydro-9H-6,10-methanopyrimido[4′,5′:5,6]pyrido[3,2-b][1,4,7]oxadiazonin-9-yl)but-2-yn-1-one]
[1]
  IC50: 0.242 µM
[2]
  IC50: > 10 µM

## CC#CC(=O)N1CCN2CC1COc1cc3ncnc(Nc4ccc(Oc5ccn6ncnc6c5)c(C)c4)c3nc12 (stereo in doubt) [Compound 18, 1-((10S)-4-((4-([1,2,4]triazolo[1,5-a]pyridin-7-yloxy)-3-methylphenyl)amino)-7,8,10,11-tetrahydro-9H-6,10-methanopyrimido[4′,5′:5,6]pyrido[3,2-b][1,4,7]oxadiazonin-9-yl)but-2-yn-1-one]
[1]
  IC50: 0.0628 µM
[2]
  IC50: 4.43 µM

## Cc1ccc(Oc2ccc(Nc3ncnc4cc5c(nc34)N3CCN(C(=O)/C=C/CN(C)C)C(CO5)C3)cc2C)cn1 (stereo in doubt) [Compound 21, (E)-4-(dimethylamino)-1-((10S)-4-((3-methyl-4-((6-methylpyridin-3-yl)oxy)phenyl)amino)-7,8,10,11-tetrahydro-9H-6,10-methanopyrimido[4′,5′:5,6]pyrido[3,2-b][1,4,7]oxadiazonin-9-yl)but-2-en-1-one]
[1]
  IC50: 0.025 µM
[2]
  IC50: 0.621 µM

## C=C(F)C(=O)N1CCN2CC1COc1cc3ncnc(Nc4ccc(Oc5ccn6ncnc6c5)c(C)c4)c3nc12 (stereo in doubt) [Compound 23, 1-((10S)-4-((4-([1,2,4]triazolo[1,5-a]pyridin-7-yloxy)-3-methylphenyl)amino)-7,8,10,11-tetrahydro-9H-6,10-methanopyrimido[4′,5′:5,6]pyrido[3,2-b][1,4,7]oxadiazonin-9-yl)-2-fluoroprop-2-en-1-one]
[1]
  IC50: 0.209 µM
[2]
  IC50: > 10 µM

## Cc1cc(Nc2ncnc3cc4c(nc23)N2CCN(C(=O)/C=C/CN(C)C)C(CO4)C2)c(F)cc1Oc1ccn2ncnc2c1 (stereo in doubt) [Compound 24, (E)-1-((10S)-4-((4-([1,2,4]triazolo[1,5-a]pyridin-7-yloxy)-2-fluoro-5-methylphenyl)amino)-7,8,10,11-tetrahydro-9H-6,10-methanopyrimido[4′,5′:5,6]pyrido[3,2-b][1,4,7]oxadiazonin-9-yl)-4-(dimethylamino)but-2-en-1-one]
[1]
  IC50: 0.00838 µM
[2]
  IC50: 2.16 µM

## Cc1cc(Nc2ncnc3cc4c(nc23)N2CCN(C(=O)/C=C/CN(C)C)C(CO4)C2)ccc1Oc1cccnc1 (stereo in doubt) [Compound 25, (E)-4-(dimethylamino)-1-((10S)-4-((3-methyl-4-(pyridin-3-yloxy)phenyl)amino)-7,8,10,11-tetrahydro-9H-6,10-methanopyrimido[4′,5′:5,6]pyrido[3,2-b][1,4,7]oxadiazonin-9-yl)but-2-en-1-one]
[1]
  IC50: 0.00554 µM
[2]
  IC50: 0.338 µM

## C=CC(=O)N1CCN2C[C@@H]1COc1cc3ncnc(Nc4ccc(Cc5ccn6ncnc6c5)c(C)c4)c3nc12 [Compound 19, 1-((10R)-4-((4-([1,2,4]triazolo[1,5-a]pyridin-7-ylmethyl)-3-methylphenyl)amino)-7,8,10,11-tetrahydro-9H-6,10-methanopyrimido[4′,5′:5,6]pyrido[3,2-b][1,4,7]oxadiazonin-9-yl)prop-2-en-1-one]
[1]
  IC50: 1.93 µM

## Cc1cc(Nc2ncnc3ccc(NC4=NC(C)(C)CO4)cc23)ccc1Oc1ccn2ncnc2c1 [Tucatinib, tucatinib, reference compound]
[1]
  IC50: 0.012 µM
